Our source for the IC50 and Ki values is ChEMBL document CHEMBL5726224, “Aminoester derivatives” (2017).

The structures appear in SMILES notation.

Assay [1] deals with 3',5'-cyclic-AMP phosphodiesterase 4B (Homo sapiens, UniProt Q07343). Kind of assay: HTRF Assay: PDE4B2 activity is detected using the LANCE Ultra cAMP homogeneous time resolved fluorescence resonance energy transfer (TR-FRET) assay from Perkin Elmer. The assay is based on the competition between the europium (Eu) chelate-labeled cAMP tracer and sample cAMP for binding sites on cAMP-specific monoclonal antibodies (mAb) labelled with the ULight¿ dye. The assay is carried out in 384-well low volume plates in a volume of 10 μl. Human recombinant PDE4B2 (80 pM) is incubated for 2 h with 3 nM cAMP in buffer containing 1×HBSS, 5 mM HEPES, 3 mM MgCl2, 0.1% BSA, pH 7.4 with or without test compounds. The enzymatic reactions are efficiently stopped by the addition of 500 μM IBMX present in the combined Stop/Detection buffer containing europium (Eu) chelate-labeled cAMP tracer and cAMP-specific monoclonal antibodies (mAb) labelled with the ULight¿ dye. […] IC50 values are determined from competition curves using a non-linear curve fitting program. On the technique in general: In TR-FRET formats the signal depends on donor and acceptor labels being close together.

Assay [2] deals with Muscarinic acetylcholine receptor M3 (Homo sapiens, UniProt P20309). As to the kind of experiment: The assay is carried out in 96-well polypropylene plates in a volume of 250 μl. […] The final assay concentration of DMSO is 0.5% (v/v). The plates are sealed and incubated for 2 h at room temperature on an orbital shaker (slow speed). Membranes are harvested onto 96-well unifilter GF/C filter plates pre-treated with 0.5% polyethyleneimine (v/v), using a filter manifold, washed four times with 200 μl of assay buffer. The plates are dried before addition of 50 μl of microscint-0, sealed then read in a Trilux Microbeta scintillation counter. IC50 values are determined from competition curves using a non-linear curve fitting program. Ki values are calculated from IC50 values by the Cheng and Prusoff equation.
Muscarinic acetylcholine receptor M3, sequence (P20309 whole entry): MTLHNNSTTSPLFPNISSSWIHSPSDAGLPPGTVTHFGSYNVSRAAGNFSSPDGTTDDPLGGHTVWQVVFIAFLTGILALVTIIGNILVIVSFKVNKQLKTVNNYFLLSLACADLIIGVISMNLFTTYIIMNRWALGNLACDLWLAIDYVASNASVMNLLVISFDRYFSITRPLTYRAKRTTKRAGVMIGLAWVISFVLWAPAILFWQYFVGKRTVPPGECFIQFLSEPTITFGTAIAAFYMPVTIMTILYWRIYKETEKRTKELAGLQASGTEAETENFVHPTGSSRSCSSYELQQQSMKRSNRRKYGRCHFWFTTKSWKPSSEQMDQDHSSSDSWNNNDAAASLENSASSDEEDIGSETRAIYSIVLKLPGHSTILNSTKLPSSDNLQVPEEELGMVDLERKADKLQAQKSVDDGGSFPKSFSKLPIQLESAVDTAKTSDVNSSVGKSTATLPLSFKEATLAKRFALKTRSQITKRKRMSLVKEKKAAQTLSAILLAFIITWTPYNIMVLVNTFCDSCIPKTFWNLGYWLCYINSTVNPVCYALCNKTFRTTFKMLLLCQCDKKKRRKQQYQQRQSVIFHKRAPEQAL

3',5'-cyclic-AMP phosphodiesterase 4B, sequence (Q07343 whole entry): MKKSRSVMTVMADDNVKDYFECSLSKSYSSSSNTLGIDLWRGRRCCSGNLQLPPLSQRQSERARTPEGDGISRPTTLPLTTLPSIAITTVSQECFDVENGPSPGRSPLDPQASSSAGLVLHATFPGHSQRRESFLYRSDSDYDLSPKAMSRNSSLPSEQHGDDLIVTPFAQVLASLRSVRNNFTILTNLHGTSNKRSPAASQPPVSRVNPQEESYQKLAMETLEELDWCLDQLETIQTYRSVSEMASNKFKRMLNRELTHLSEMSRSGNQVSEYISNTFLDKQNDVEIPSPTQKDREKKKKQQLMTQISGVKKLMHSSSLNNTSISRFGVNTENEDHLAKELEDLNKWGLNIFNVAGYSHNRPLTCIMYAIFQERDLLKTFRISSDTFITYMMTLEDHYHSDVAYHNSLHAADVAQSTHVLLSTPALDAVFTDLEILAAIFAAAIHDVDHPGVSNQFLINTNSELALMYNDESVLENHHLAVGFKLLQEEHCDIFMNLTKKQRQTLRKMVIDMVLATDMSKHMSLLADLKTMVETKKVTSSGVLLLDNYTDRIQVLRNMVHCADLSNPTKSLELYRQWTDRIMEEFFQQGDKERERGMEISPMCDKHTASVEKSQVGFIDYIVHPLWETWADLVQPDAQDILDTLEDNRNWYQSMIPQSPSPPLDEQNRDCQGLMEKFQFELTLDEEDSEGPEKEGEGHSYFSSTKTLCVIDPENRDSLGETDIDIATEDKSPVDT

In general, IC50 refers to the concentration that gives 50% inhibition. For the compound `COc1ccc([C@H](Cc2c(Cl)c[n+]([O-])cc2Cl)OC(=O)c2ccc(CNC(C(=O)OCC3CCN(C)CC3)c3cccc(O)c3)s2)cc1OC` (stereo partly specified), the IC50 in assay [1] was less than 1 nM.

As to `COc1ccc([C@H](Cc2c(Cl)c[n+]([O-])cc2Cl)OC(=O)c2ccc(CNC(C)(C(=O)OCC3CCN(C)CC3)c3ccccc3)s2)cc1OC` (stereo partly specified), in assay [1], the half-inhibitory concentration (IC50) is less than 1 nM.

In the case of `CCOc1cc(C(Cc2c(Cl)c[n+]([O-])cc2Cl)OC(=O)c2ccc(CNC(C(=O)OCC3CCN(C)CC3)c3ccccc3)s2)ccc1OC` (stereo unspecified), in assay [1], the half-maximal inhibitory concentration (IC50) is less than 1 nM.

On to `COc1ccc(C(Cc2c(Cl)c[n+]([O-])cc2Cl)OC(=O)c2ccc(CNC(C(=O)OCC3CCN(C)CC3)c3ccccc3)s2)cc1OCC1CC1` (stereo unspecified), for which, in assay [1], the IC50 is less than 1 nM.

Turning to `COc1ccc([C@H](Cc2c(Cl)c[n+]([O-])cc2Cl)OC(=O)c2ccc(CNC(C(=O)OC[C@H]3CCCCN3C)c3ccccc3)s2)cc1OC` (stereo partly specified), the IC50 in assay [1] is less than 1 nM.

As for `COc1ccc([C@H](Cc2c(Cl)c[n+]([O-])cc2Cl)OC(=O)c2ccc(CNC(C(=O)OCC3CCN(C)CC3)c3ccccc3F)s2)cc1OC` (stereo partly specified), in assay [1], the 50% inhibitory concentration (IC50) is less than 1 nM.

Take `COc1ccc([C@H](Cc2c(Cl)c[n+]([O-])cc2Cl)OC(=O)c2ccc(CNC(C(=O)OC[C@H]3CCCN(C)C3)c3ccccc3)s2)cc1OC` (stereo partly specified): the IC50 in assay [1] was less than 1 nM.

`COc1ccc([C@H](Cc2c(Cl)c[n+]([O-])cc2Cl)OC(=O)c2ccc(CNC(CO)(C(=O)OC[C@H]3CCN(C)C3)c3ccccc3)s2)cc1OC` (stereo partly specified): the concentration for half-maximal inhibition (IC50) in assay [2] and in assay [1] was less than 1 nM each time.

`COc1ccc([C@H](Cc2c(Cl)c[n+]([O-])cc2Cl)OC(=O)c2ccc(CNC(CO)(C(=O)OC[C@@H]3CCN(C)C3)c3ccccc3)s2)cc1OC` (stereo partly specified): the half-inhibitory concentration (IC50) in assay [2] is less than 1 nM.

The Ki is the dissociation constant of the complex between target and ligand, obtained from inhibition or displacement. For the compound `COc1ccc([C@H](Cc2c(Cl)c[n+]([O-])cc2Cl)OC(=O)c2ccc(CNC(C(=O)OC[C@H]3CCN(C)C3)c3ccccc3)s2)cc1OC` (stereo partly specified), in assay [2], the Ki is 0.59 nM.
